From ChEMBL document CHEMBL1909046, “DrugMatrix in vitro pharmacology data”

Legend:
[1] = biological target: Beta-2 adrenergic receptor (Homo sapiens, UniProt P07550); assay: DRUGMATRIX: Adrenergic beta2 radioligand binding (ligand: [3H] CGP-12177); assay type: cell membranes, CHO, Membrane; settings: Not Active = under 50% inhibition at 10 µM
Substance-P receptor = Substance-P receptor (Homo sapiens, UniProt P25103); assay type: cell membranes, Membrane; settings: cho; also: in other assays of this panel Not Active means under 50% inhibition at 10 µM
Chain of Substance-P receptor (P25103 whole entry): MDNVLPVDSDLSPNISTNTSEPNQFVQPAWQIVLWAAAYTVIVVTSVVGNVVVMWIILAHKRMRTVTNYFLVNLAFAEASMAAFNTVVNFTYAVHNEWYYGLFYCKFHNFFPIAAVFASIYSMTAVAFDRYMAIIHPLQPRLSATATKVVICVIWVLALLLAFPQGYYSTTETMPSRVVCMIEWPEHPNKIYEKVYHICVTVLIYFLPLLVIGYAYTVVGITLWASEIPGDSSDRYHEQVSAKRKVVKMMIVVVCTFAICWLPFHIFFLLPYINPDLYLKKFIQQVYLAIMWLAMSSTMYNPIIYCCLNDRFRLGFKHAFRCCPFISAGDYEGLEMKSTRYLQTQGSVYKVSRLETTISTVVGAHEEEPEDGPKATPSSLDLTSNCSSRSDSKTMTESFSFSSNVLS

[2] = biological target: T1, C-X-C chemokine receptor type 2 (Homo sapiens, UniProt P25025); assay type: cell membranes, CHO-K1, Membrane; settings: cho-k1; also: in other assays of this panel Not Active means under 50% inhibition at 10 µM
T1 sequence (P25025 whole entry): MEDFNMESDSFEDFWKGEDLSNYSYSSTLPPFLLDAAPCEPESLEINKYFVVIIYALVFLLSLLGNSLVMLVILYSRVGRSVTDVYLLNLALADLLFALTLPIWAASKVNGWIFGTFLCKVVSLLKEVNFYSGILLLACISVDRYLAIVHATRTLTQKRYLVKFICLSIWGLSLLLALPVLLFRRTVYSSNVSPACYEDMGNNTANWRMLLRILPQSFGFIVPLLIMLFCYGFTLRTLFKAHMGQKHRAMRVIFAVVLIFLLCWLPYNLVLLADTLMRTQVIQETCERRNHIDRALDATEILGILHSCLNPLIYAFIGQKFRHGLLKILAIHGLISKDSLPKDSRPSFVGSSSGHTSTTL

[3] = biological target: T2, Neuropeptide Y receptor type 1 (Homo sapiens, UniProt P25929); assay type: cell membranes, Membrane; settings: sk-n-mc; also: in other assays of this panel Not Active means under 50% inhibition at 10 µM
T2 sequence (P25929 whole entry): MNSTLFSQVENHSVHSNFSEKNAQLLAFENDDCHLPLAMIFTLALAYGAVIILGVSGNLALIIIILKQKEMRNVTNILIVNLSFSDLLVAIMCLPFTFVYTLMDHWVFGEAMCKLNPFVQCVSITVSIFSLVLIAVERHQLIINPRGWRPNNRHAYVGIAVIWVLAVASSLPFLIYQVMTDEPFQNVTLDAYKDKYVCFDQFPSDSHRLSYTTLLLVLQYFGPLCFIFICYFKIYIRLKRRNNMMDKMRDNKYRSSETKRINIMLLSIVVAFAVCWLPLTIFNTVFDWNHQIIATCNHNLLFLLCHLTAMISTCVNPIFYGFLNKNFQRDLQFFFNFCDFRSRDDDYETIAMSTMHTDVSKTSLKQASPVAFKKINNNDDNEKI

[4] = biological target: T3, 5-hydroxytryptamine receptor 1A (Rattus norvegicus, UniProt P19327); assay type: cell membranes, CHO-K1, Membrane; also: in other assays of this panel Not Active means under 50% inhibition at 10 µM
T3 sequence (P19327 whole entry): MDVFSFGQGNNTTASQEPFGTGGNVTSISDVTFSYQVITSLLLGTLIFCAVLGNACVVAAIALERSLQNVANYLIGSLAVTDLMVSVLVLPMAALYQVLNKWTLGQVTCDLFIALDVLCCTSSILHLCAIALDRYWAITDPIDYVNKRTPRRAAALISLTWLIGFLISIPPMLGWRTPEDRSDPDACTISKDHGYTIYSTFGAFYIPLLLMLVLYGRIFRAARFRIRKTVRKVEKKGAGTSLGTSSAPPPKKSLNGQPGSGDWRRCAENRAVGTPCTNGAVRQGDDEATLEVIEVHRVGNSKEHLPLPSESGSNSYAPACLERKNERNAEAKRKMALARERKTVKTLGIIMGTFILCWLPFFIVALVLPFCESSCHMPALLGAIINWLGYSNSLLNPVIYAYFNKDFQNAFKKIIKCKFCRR

Adenosine receptor A1 = biological target: T4, Adenosine receptor A1 (Homo sapiens, UniProt P30542); assay type: cell membranes, CHO, Membrane; settings: cho
T4 sequence (P30542 whole entry): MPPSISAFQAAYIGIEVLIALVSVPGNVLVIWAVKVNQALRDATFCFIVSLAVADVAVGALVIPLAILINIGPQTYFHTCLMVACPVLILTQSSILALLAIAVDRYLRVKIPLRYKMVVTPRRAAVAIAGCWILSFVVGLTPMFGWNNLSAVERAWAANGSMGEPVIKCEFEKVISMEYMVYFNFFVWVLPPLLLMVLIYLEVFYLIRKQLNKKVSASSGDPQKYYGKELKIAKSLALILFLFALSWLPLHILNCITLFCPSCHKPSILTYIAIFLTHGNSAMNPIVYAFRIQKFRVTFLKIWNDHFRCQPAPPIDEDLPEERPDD

Compound | IC50 ([1]; cho) | IC50 (Substance-P receptor) | IC50 [2] | IC50 [3] | IC50 ([4]; read-out: IC50) [nM] | Ki ([4]; read-out: Ki) [nM] | IC50 (Adenosine receptor A1) | IC50 ([4]; cho-k1) | IC50 ([1]; read-out: IC50) [nM] | Ki ([1]; read-out: Ki) [nM] | Ki ([1]; cho) | Ki (Substance-P receptor) | Ki [2] | Ki [3] | Ki ([4]; cho-k1) | Ki (Adenosine receptor A1)
CN1C[C@H](CNC(=O)OCc2ccccc2)C[C@@H]2c3cccc4c3c(cn4C)C[C@H]21 [METERGOLINE] | Not Active | Not Active | Not Active | Not Active | 6.17 | 3.53 | Not Active | – | – | – | – | – | – | – | – | –
CCN(CC)CCNC(=O)c1cc(Cl)c(N)cc1OC [METOCLOPRAMIDE] | Not Active | Not Active | Not Active | Not Active | – | – | Not Active | Not Active | – | – | – | – | – | – | – | –
Cc1ccc(Cl)c(Nc2ccccc2C(=O)O)c1Cl [MECLOFENAMIC ACID] | Not Active | Not Active | Not Active | Not Active | – | – | Not Active | Not Active | – | – | – | – | – | – | – | –
CO[C@@]12[C@H](COC(N)=O)C3=C(C(=O)C(C)=C(N)C3=O)N1C[C@@H]1N[C@@H]12 [MITOMYCIN] | Not Active | Not Active | Not Active | Not Active | – | – | Not Active | Not Active | – | – | – | – | – | – | – | –
Cc1[nH]c(=O)c(C#N)cc1-c1ccncc1 [MILRINONE] | Not Active | Not Active | Not Active | Not Active | – | – | Not Active | Not Active | – | – | – | – | – | – | – | –
O=[As][O-].[Na+] [SODIUM ARSENITE] | Not Active | Not Active | Not Active | Not Active | – | – | Not Active | Not Active | – | – | – | – | – | – | – | –
COC(=O)Nc1nc2ccc(C(=O)c3ccccc3)cc2[nH]1 [MEBENDAZOLE] | Not Active | Not Active | Not Active | Not Active | – | – | Not Active | Not Active | – | – | – | – | – | – | – | –
CCOC(=O)C1=C(C)NC(C)=C(C(=O)OCC)C1c1ccccc1/C=C/C(=O)OC(C)(C)C [LACIDIPINE] | Not Active | Not Active | Not Active | Not Active | – | – | Not Active | Not Active | – | – | – | – | – | – | – | –
O=C(OC[C@H]1O[C@@H](OC(=O)c2cc(O)c(O)c(OC(=O)c3cc(O)c(O)c(O)c3)c2)[C@H](OC(=O)c2cc(O)c(O)c(OC(=O)c3cc(O)c(O)c(O)c3)c2)[C@@H](OC(=O)c2cc(O)c(O)c(OC(=O)c3cc(O)c(O)c(O)c3)c2)[C@@H]1OC(=O)c1cc(O)c(O)c(OC(=O)c2cc(O)c(O)c(O)c2)c1)c1cc(O)c(O)c(OC(=O)c2cc(O)c(O)c(O)c2)c1 [TANNIC ACID] | Not Active | Not Active | Not Active | Not Active | – | – | Not Active | Not Active | – | – | – | – | – | – | – | –
CC#C[C@]1(O)CC[C@H]2[C@@H]3CCC4=CC(=O)CCC4=C3[C@@H](c3ccc(N(C)C)cc3)C[C@@]21C [MIFEPRISTONE] | Not Active | Not Active | Not Active | Not Active | – | – | Not Active | Not Active | – | – | – | – | – | – | – | –
CC(O)C(=O)O (stereo not drawn) [LACTIC ACID] | Not Active | Not Active | Not Active | Not Active | – | – | Not Active | Not Active | – | – | – | – | – | – | – | –
Cc1ccnc(NS(=O)(=O)c2ccc(N)cc2)n1 [SULFAMERAZINE] | Not Active | Not Active | Not Active | Not Active | – | – | Not Active | Not Active | – | – | – | – | – | – | – | –
CC(C)(C)NC[C@H](O)COc1cccc2c1CCCC2=O [LEVOBUNOLOL] | – | Not Active | Not Active | Not Active | 2900 | 1660 | Not Active | – | 0.793 | 0.546 | – | – | – | – | – | –
CCOc1cc(N)c(Cl)cc1C(=O)NCC1CN(Cc2ccc(F)cc2)CCO1 (stereo not drawn) [MOSAPRIDE] | Not Active | Not Active | Not Active | Not Active | – | – | Not Active | Not Active | – | – | – | – | – | – | – | –
CC(=O)O[C@]1(C(C)=O)CC[C@H]2[C@@H]3C[C@H](C)C4=CC(=O)CC[C@]4(C)[C@H]3CC[C@@]21C [MEDROXYPROGESTERONE ACETATE] | Not Active | Not Active | Not Active | Not Active | – | – | Not Active | Not Active | – | – | – | – | – | – | – | –
OC[C@@H](O)[C@@H](O)[C@H](O)[C@H](O)CO [MANNITOL] | Not Active | Not Active | Not Active | Not Active | – | – | Not Active | Not Active | – | – | – | – | – | – | – | –
CC(Cl)(Cl)Cl [TRICHLOROETHANE] | Not Active | Not Active | Not Active | Not Active | – | – | Not Active | Not Active | – | – | – | – | – | – | – | –
LEAD(IV) ACETATE | Not Active | Not Active | Not Active | Not Active | – | – | Not Active | Not Active | – | – | Not Active | Not Active | Not Active | Not Active | Not Active | Not Active
O=C(c1ccccc1)c1ccc2n1CCC2C(=O)O (stereo not drawn) [KETOROLAC] | Not Active | Not Active | Not Active | Not Active | – | – | Not Active | Not Active | – | – | – | – | – | – | – | –
